# US20240199587A1, “HETEROCYCLIC COMPOUNDS” (Hoffmann-La Roche Inc., priority 2021, published 2024)
# Target: T1, MAGL (Homo sapiens, UniProt Q99685)
# T1 sequence (Q99685 1-303): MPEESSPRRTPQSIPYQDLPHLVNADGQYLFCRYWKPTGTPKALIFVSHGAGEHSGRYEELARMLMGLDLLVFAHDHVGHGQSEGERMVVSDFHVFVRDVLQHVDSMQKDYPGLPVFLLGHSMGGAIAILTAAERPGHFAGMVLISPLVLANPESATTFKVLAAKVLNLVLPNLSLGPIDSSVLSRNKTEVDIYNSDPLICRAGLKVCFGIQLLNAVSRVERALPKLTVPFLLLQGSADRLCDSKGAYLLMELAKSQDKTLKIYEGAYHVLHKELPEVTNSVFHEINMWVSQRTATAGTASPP
# Experiment: 2-AG assay (MAGL inhibitory activity, hydrolysis of 2-arachidonoylglycerol to arachidonic acid followed by mass spectrometry)
# Format: biochemical
# Settings: 8 μM 2-arachidonoylglycerol, 15 min pre-incubation, 30 min incubation at RT, RapidFire MS readout
# Outline: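 Human MAGL ([…] final) pre-incubated 15 min at RT with compound in 50 mM TRIS, 1 mM EDTA, 0.01% Tween-20, 2.5% DMSO; 8 μM 2-AG then added for 30 min at RT. Acetonitrile quench with d8-arachidonic acid; arachidonic acid measured by RapidFire SPE–MS/MS, activity from arachidonic acid/d8 ratio.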
row,IC50 [nM],SMILES
1,14.4,"O=C(N1CC(c2ccc(N3CC[C@H](C(F)(F)F)C3)nc2)C1)N1CC2(CC(n3cnc(C4(O)CC4)n3)C2)C1 [Example 397, [6-[3-(1-hydroxycyclopropyl)-1,2,4-triazol-1-yl]-2-azaspiro[3.3]heptan-2-yl]-[3-[6-[(3S)-3-(trifluoromethyl)pyrrolidin-1-yl]-3-pyridyl]azetidin-1-yl]methanone]"
2,34.8,"O=C(N1CC(OCc2ccc(S(=O)(=O)C(F)(F)F)cc2F)C1)N1CC2(CC(n3cnc(C4(O)CC4)n3)C2)C1 [Example 398, [3-[[2-fluoro-4-(trifluoromethylsulfonyl)phenyl]methoxy]azetidin-1-yl]-[6-[3-(1-hydroxycyclopropyl)-1,2,4-triazol-1-yl]-2-azaspiro[3.3]heptan-2-yl]methanone]"
3,102,"O=C(N1CC(OCc2ccc(S(=O)(=O)C(F)(F)F)cc2)C1)N1CC2(CC(n3cnc(C4(O)CC4)n3)C2)C1 [Example 399, [6-[3-(1-hydroxycyclopropyl)-1,2,4-triazol-1-yl]-2-azaspiro[3.3]heptan-2-yl]-[3-[[4-(trifluoromethylsulfonyl)phenyl]methoxy]azetidin-1-yl]methanone]"
4,3.91,"O=C(N1CC2(CC(Cc3ncc(F)cc3F)C2)C1)N1CC2(CC(n3cnc(C4(O)CC4)n3)C2)C1 [Example 402, [6-[(3,5-difluoro-2-pyridyl)methyl]-2-azaspiro[3.3]heptan-2-yl]-[6-[3-(1-hydroxycyclopropyl)-1,2,4-triazol-1-yl]-2-azaspiro[3.3]heptan-2-yl]methanone]"
5,1.25,"CS(=O)(=O)c1ccc(CC2CC3(C2)CN(C(=O)N2CC4(CC(n5cnc(C6(O)CC6)n5)C4)C2)C3)c(F)c1 [Example 403, [6-[(2-fluoro-4-methylsulfonyl-phenyl)methyl]-2-azaspiro[3.3]heptan-2-yl]-[6-[3-(1-hydroxycyclopropyl)-1,2,4-triazol-1-yl]-2-azaspiro[3.3]heptan-2-yl]methanone]"
6,2.33,"O=C(N1CC2(CC(Cc3ccc(Cl)cn3)C2)C1)N1CC2(CC(n3cnc(C4(O)CC4)n3)C2)C1 [Example 404, [6-[(5-chloro-2-pyridyl)methyl]-2-azaspiro[3.3]heptan-2-yl]-[6-[3-(1-hydroxycyclopropyl)-1,2,4-triazol-1-yl]-2-azaspiro[3.3]heptan-2-yl]methanone]"
7,169,"CS(=N)(=O)c1ccc(CC2CC3(C2)CN(C(=O)N2CC4(CC(n5cnc(C6(O)CC6)n5)C4)C2)C3)cc1 (stereo not drawn) [Example 405, [6-[3-(1-hydroxycyclopropyl)-1,2,4-triazol-1-yl]-2-azaspiro[3.3]heptan-2-yl]-[6-[[4-(methylsulfonimidoyl)phenyl]methyl]-2-azaspiro[3.3]heptan-2-yl]methanone]"
8,0.31,"O=C(N1CC2(CC(Cc3ccc(C(F)(F)F)cn3)C2)C1)N1CC2(CC(n3cnc(C4(O)CC4)n3)C2)C1 [Example 408, [6-[3-(1-hydroxycyclopropyl)-1,2,4-triazol-1-yl]-2-azaspiro[3.3]heptan-2-yl]-[6-[[5-(trifluoromethyl)-2-pyridyl]methyl]-2-azaspiro[3.3]heptan-2-yl]methanone]"
9,27.5,"O=C(N1CC2(CC(Cc3ccc(C(F)(F)F)nn3)C2)C1)N1CC2(CC(n3cnc(C4(O)CC4)n3)C2)C1 [Example 409, [6-[3-(1-hydroxycyclopropyl)-1,2,4-triazol-1-yl]-2-azaspiro[3.3]heptan-2-yl]-[6-[[6-(trifluoromethyl)pyridazin-3-yl]methyl]-2-azaspiro[3.3]heptan-2-yl]methanone]"
10,24.9,"O=C(N1CC2(CC(Cc3cnc(C(F)(F)F)nc3)C2)C1)N1CC2(CC(n3cnc(C4(O)CC4)n3)C2)C1 [Example 410, [6-[3-(1-hydroxycyclopropyl)-1,2,4-triazol-1-yl]-2-azaspiro[3.3]heptan-2-yl]-[6-[[2-(trifluoromethyl)pyrimidin-5-yl]methyl]-2-azaspiro[3.3]heptan-2-yl]methanone]"
11,16.3,"CS(=O)(=O)c1cc(F)cc(CC2CC3(C2)CN(C(=O)N2CC4(CC(n5cnc(C6(O)CC6)n5)C4)C2)C3)c1 [Example 411, [6-[(3-fluoro-5-methylsulfonyl-phenyl)methyl]-2-azaspiro[3.3]heptan-2-yl]-[6-[3-(1-hydroxycyclopropyl)-1,2,4-triazol-1-yl]-2-azaspiro[3.3]heptan-2-yl]methanone]"
12,7.96,"O=C(N1CC2(CC(n3cnc(C4(O)CC4)n3)C2)C1)N1CC2(CN(Cc3ccc(S(=O)(=O)C(F)(F)F)cc3)C2)C1 [Example 412, [6-[3-(1-hydroxycyclopropyl)-1,2,4-triazol-1-yl]-2-azaspiro[3.3]heptan-2-yl]-[6-[[4-(trifluoromethylsulfonyl)phenyl]methyl]-2,6-diazaspiro[3.3]heptan-2-yl]methanone]"
13,47.8,"CS(=O)(=O)c1cc(Cl)ccc1-c1ccc(C2CN(C(=O)N3CC4(CC(n5cncn5)C4)C3)C2)cc1 [Example 413, [3-[4-(4-chloro-2-methylsulfonyl-phenyl)phenyl]azetidin-1-yl]-[6-(1,2,4-triazol-1-yl)-2-azaspiro[3.3]heptan-2-yl]methanone]"
14,2960,"CP(C)(=O)c1ccc(COC2CN(C(=O)N3CC4(CC(n5cnc(C(F)(F)F)n5)C4)C3)C2)cc1 [Example 414, [3-[(4-dimethyl-phosphorylphenyl)methoxy]azetidin-1-yl]-[6-[3-(trifluoromethyl)-1,2,4-triazol-1-yl]-2-azaspiro[3.3]heptan-2-yl]methanone]"
15,1060,"CP(C)(=O)c1ccc(COC2CN(C(=O)N3CC4(CC(n5cnc(C6CC6)n5)C4)C3)C2)cc1 [Example 415, [6-(3-cyclopropyl-1,2,4-triazol-1-yl)-2-azaspiro[3.3]heptan-2-yl]-[3-[(4-dimethylphosphorylphenyl)methoxy]azetidin-1-yl]methanone]"
16,1.12,"CS(=N)(=O)c1cc(F)ccc1CC1CC2(C1)CN(C(=O)N1CC3(CC(n4cnc(C5CC5)n4)C3)C1)C2 (stereo not drawn) [Example 416, [6-(3-cyclopropyl-1,2,4-triazol-1-yl)-2-azaspiro[3.3]heptan-2-yl]-[6-[[4-fluoro-2-(methylsulfonimidoyl)phenyl]methyl]-2-azaspiro[3.3]heptan-2-yl]methanone]"
17,359,"CC(C)(C)Cn1nncc1-c1ccc(C2CN(C(=O)N3CC4(CC(n5cncn5)C4)C3)C2)cc1 [Example 417, [3-[4-[3-(2,2-dimethylpropyl)triazol-4-yl]phenyl]azetidin-1-yl]-[6-(1,2,4-triazol-1-yl)-2-azaspiro[3.3]heptan-2-yl]methanone]"
18,4.75,"O=C(N1CC(C23CC(c4nnc(C5(C(F)(F)F)CC5)[nH]4)(C2)C3)C1)N1CC2(CC(n3cnc(C(F)(F)F)n3)C2)C1 [Example 418, [3-[3-[5-[1-(trifluoromethyl)cyclopropyl]-4H-1,2,4-triazol-3-yl]-1-bicyclo[1.1.1]pentanyl]azetidin-1-yl]-[6-[3-(trifluoromethyl)-1,2,4-triazol-1-yl]-2-azaspiro[3.3]heptan-2-yl]methanone]"
19,2.48,"O=C(N1CC(C23CC(c4nnc(C5(C(F)(F)F)CC5)[nH]4)(C2)C3)C1)N1CC2(CC(n3cnc(C4CC4)n3)C2)C1 [Example 419, [6-(3-cyclopropyl-1,2,4-triazol-1-yl)-2-azaspiro[3.3]heptan-2-yl]-[3-[3-[5-[1-(trifluoromethyl)cyclopropyl]-4H-1,2,4-triazol-3-yl]-1-bicyclo[1.1.1]pentanyl]azetidin-1-yl]methanone]"
20,0.74,"O=C(N1CC(C23CC(CNC4(C(F)(F)F)CC4)(C2)C3)C1)N1CC2(CC(n3cnc(C(F)(F)F)n3)C2)C1 [Example 420, [3-[3-[[[1-(trifluoromethyl)cyclopropyl]amino]methyl]-1-bicyclo[1.1.1]pentanyl]azetidin-1-yl]-[6-[3-(trifluoromethyl)-1,2,4-triazol-1-yl]-2-azaspiro[3.3]heptan-2-yl]methanone]"
21,0.76,"O=C(N1CC(C23CC(NCC4(C(F)(F)F)CC4)(C2)C3)C1)N1CC2(CC(n3cnc(C(F)(F)F)n3)C2)C1 [Example 421, [3-[3-[[1-(trifluoromethyl)cyclopropyl]methylamino]-1-bicyclo[1.1.1]pentanyl]azetidin-1-yl]-[6-[3-(trifluoromethyl)-1,2,4-triazol-1-yl]-2-azaspiro[3.3]heptan-2-yl]methanone]"
22,2.81,"O=C(N1CC(c2ccc(N3CC(C(F)(F)F)C3)nc2)C1)N1CC2(CC(n3cnc(C(F)(F)F)n3)C2)C1 [Example 422, [3-[6-[3-(trifluoromethyl)azetidin-1-yl]-3-pyridyl]azetidin-1-yl]-[6-[3-(trifluoromethyl)-1,2,4-triazol-1-yl]-2-azaspiro[3.3]heptan-2-yl]methanone]"
23,38.5,"O=C(N1CC(c2cnc(N3CC(C(F)(F)F)C3)nc2)C1)N1CC2(CC(n3cnc(C(F)(F)F)n3)C2)C1 [Example 423, [3-[2-[3-(trifluoromethyl)azetidin-1-yl]pyrimidin-5-yl]azetidin-1-yl]-[6-[3-(trifluoromethyl)-1,2,4-triazol-1-yl]-2-azaspiro[3.3]heptan-2-yl]methanone]"
24,0.16,"O=C(N1CC(c2ccc(NCC3(C(F)(F)F)CC3)nc2)C1)N1CC2(CC(n3cnc(C(F)(F)F)n3)C2)C1 [Example 424, [3-[6-[[1-(trifluoromethyl)cyclopropyl]methylamino]-3-pyridyl]azetidin-1-yl]-[6-[3-(trifluoromethyl)-1,2,4-triazol-1-yl]-2-azaspiro[3.3]heptan-2-yl]methanone]"
